The test has as its target T1, α4·IgG heavy chain-β1·IgG heavy chain chimeric protein heterodimer complex (integrin α4β1; sequence Nos. 1 and 2) (Homo sapiens, UniProt P05556+P13612).
T1 construct: made in house; culture supernatant used in the assay
Nature of the test: Inhibition of the binding of the α4·IgG heavy chain-β1·IgG heavy chain chimeric protein heterodimer complex to solid-phase CS-1-IgG (peptide fragment of fibronectin), ELISA-type detection at 490 nm. The conditions noted are these: for inhibition at 100 µg/mL: compound concentration 100 μg/ml; for inhibition at 100 µg/mL / inhibition at 50 µg/mL: read-out: Inhibition rate (%); for IC50: binding assay system of Example 9: binding to CS-1-IgG, cyclic phage-library peptides, read-out: Inhibitory activity IC50. The method, then: At first, according to the said report (Humphries, M. J. et al., J. Biol. Chem., 262, 6886-6892 (1987)), the peptide fragment of sequence No. 3 (CS-1 peptide) was bound to rabbit IgG (Sigma), to prepare CS-1-IgG. The CS-1-IgG was diluted by PBS(-), and put in a 96-well immunoplate (NUNC) by 100 µl/well, and allowed to stand at 4°C for 16 hours, to be formed as a solid phase on the plate.
After completion of standing, the surface of the plate was washed with PBS(-) twice and treated with denatured 1% BSA(heat-natured at 80°C for 10 minutes)-PBS solution ( 300 µl/well) at 4°C for 3 hours to block the nonspecific reaction. Then, the solid phase CS-1-IgG and the CHO culture supernatant (100 µl) containing α4·IgG heavy chain-β1·IgG heavy chain chimeric protein heterodimer complex were reacted with each other at 30°C for 3 hours. The non-bound α4·IgG heavy chain-β1·IgG heavy chain chimeric protein heterodimer complex was removed by washing with 0.1% BSA-containing TBS buffer (150 mM NaCl, 25 mM Tris-HCl, 1 mM MnCl2, pH 7.4) twice, and the bound α4·IgG heavy chain-β1·IgG heavy chain chimeric protein heterodimer complex was detected by biotin labeled anti-human IgG antibody (Vector) as the primary antibody and avidin labeled horseradish peroxidase (Sigma) as the secondary antibody. The surface of the plate was washed with the TBS buffer. Orthophenylenediamine was added as a substrate to it for color development, and the absorbance at 490 nm were measured.
The all peptides were synthesized by a peptide synthesizer. The peptide and 100 µl of CHO cultured supernatant solution containing αα4·IgG heavy chain-β1·IgG heavy chain chimeric protein heterodimer complex were mixed at room temperature for 20 minutes, and the binding to CS-1-IgG was determined according to the method in Example 9.
At first, α4·IgG heavy chain-β1·IgG heavy chain chimeric protein heterodimer complex purified in Example 6, or human IgG was prepared at a proper concentration by PBS (-) and was coated on a plastic plate at 4°C for 16 hours, being formed as a solid phase on a plastic plate. Then, according to a report (Cott, J. K. and Smoth, G. P., Science, 249, 386-390 (1990)), a phage peptide library in which a random six amino acid residues were cyclyzed by the disulfide bond of cysteine at both the ends was prepared and suspended in 0.1% BSA-containing TBS buffer. The phage peptide library was reacted with human IgG at 30°C for 3 hours, to absorb phage peptides capable of being bound to IgG. Then, the non-absorbed phases were reacted with α4·IgG heavy chain-β1·IgG heavy chain chimeric protein heterodimer complex at 30°C for 3 hours, and the reaction mixture was washed with 0.1% BSA-containing TBS buffer twice to remove the phage peptides incapable of being bound to the heterodimer complex. Only the phage peptides capable of being bound were collected after elution with 0.1M glycine-hydrochloric acid (pH 2.2). After collection, the phage was amplified and the above mentioned binding operation was repeated further twice. The only the phage peptides capable of being bound to the heterodimer complex were selectively concentrated. In the final elution operation, phage peptides capable of being bound to the heterodimer complex were eluted using 10 mM EDTA and 0.1M glycine-hydrochloric acid in two steps, and the amino acid sequences of the respective peptides were analyzed. Furthermore, they were examined using the binding assay system of Example 9, and the IC50 values of the four peptide sequences showing binding inhibitory activity are shown in Table 1.
Reagents and reported compounds were picked up at random, adjusted to a final concentration of 50 or 100 µg/ml, and added to the binding determination system in Example 9. Compounds showing inhibitory activity were obtained. […]

The mark [1] stands for this setting: binding determination system of Example 9 (CS-1-IgG).

Read-outs that look alike come from different tables or passages of the source.

Data on 8 molecules can be found in EP0896002A1, “CHIMERIC PROTEINS, HETERODIMER COMPLEXES THEREOF AND SUBSTITUTE FOR PLATELET” (TORAY INDUSTRIES, INC., priority 1997, dated 1998).

T1 sequence (P13612 35-977 limits assumed, change not shown): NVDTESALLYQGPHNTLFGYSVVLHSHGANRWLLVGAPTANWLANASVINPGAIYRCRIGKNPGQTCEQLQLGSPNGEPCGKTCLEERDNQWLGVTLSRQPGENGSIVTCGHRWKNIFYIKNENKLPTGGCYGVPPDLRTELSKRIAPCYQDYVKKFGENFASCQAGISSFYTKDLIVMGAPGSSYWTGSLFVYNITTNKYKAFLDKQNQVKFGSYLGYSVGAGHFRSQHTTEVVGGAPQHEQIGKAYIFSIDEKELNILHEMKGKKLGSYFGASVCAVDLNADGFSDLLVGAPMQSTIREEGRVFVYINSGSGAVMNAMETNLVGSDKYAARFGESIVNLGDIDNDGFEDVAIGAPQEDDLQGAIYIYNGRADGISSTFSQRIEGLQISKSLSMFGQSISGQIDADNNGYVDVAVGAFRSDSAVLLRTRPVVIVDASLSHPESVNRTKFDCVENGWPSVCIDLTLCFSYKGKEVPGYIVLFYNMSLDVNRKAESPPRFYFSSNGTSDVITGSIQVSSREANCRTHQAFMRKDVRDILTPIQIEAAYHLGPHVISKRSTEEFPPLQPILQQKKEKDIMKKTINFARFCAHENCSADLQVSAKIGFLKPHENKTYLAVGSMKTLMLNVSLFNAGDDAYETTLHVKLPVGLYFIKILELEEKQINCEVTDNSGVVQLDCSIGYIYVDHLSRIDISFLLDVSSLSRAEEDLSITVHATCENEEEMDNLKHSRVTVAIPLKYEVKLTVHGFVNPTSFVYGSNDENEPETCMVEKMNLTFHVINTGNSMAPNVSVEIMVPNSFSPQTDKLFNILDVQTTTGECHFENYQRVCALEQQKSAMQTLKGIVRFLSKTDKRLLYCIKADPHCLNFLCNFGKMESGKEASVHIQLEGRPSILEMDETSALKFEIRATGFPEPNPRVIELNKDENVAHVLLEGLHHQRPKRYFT
T1 sequence (P05556 21-728 limits assumed, change not shown): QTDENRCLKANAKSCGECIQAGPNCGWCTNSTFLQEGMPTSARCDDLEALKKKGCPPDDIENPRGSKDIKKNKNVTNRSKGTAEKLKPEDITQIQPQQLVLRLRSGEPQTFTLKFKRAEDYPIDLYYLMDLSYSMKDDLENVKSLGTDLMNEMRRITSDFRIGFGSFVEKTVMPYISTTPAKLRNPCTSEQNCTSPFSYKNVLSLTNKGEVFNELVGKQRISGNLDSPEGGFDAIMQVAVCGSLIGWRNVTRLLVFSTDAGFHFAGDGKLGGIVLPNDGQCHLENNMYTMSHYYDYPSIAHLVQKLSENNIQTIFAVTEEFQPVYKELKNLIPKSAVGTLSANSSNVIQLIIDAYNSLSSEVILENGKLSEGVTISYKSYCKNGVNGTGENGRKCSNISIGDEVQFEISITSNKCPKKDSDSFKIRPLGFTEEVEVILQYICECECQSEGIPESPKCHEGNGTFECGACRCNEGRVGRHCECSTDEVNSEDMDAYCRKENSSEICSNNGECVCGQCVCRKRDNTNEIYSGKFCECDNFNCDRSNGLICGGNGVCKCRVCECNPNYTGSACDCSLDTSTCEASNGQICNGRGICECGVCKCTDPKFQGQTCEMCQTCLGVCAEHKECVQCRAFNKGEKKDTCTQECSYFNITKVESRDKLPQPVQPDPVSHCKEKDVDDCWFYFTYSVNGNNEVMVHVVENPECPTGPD
T1 sequence (P01857 99-330 partner limits assumed): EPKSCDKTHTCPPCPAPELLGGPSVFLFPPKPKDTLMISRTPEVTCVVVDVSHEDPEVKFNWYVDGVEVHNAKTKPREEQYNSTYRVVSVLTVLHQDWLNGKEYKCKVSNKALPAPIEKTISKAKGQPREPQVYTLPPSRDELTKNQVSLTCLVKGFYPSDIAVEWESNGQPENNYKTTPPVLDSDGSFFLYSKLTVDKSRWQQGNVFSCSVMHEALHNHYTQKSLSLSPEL

Take `O=C(O)CC12CC3CC(CC(C3)C1)C2` [1-Adamantaneacetic acid]: under setting [1], the inhibition at 100 µg/mL was 65%. As for `CC(C)(S)[C@@H](N)C(=O)O` [D-Penicillamine], the inhibition at 50 µg/mL came out at 51%. For `C#C[C@]1(O)CC[C@H]2[C@@H]3CCC4=C(CCC(=O)C4)[C@H]3CC[C@@]21C` [Norethynodrel], the inhibition at 50 µg/mL (compound concentration 50 μg/ml, binding determination system of Example 9 (CS-1-IgG)) worked out at 28%.

Consider `O=C(O)CCCc1ccc2ccccc2c1` [γ-2-Naphtyl butyric acid, γ-2-Naphthyl butyric acid], for which the inhibition at 100 µg/mL under setting [1] turned out to be 37%. Take “Cys* Gly Leu Gln Ala Leu Pro Cys* (GLQALPC; printed: Gly Leu Gln Ala Leu Pro Cys) [Sequence No. 30]”: the 50% inhibitory concentration (IC50) was 10000 nM.

In the case of “Cys* Ile Pro Glu Leu Ile Val Cys* (IPELIVC; printed: Ile Pro Glu Leu Ile Val Cys) [Sequence No. 24]”, the IC50 was determined as 1200 nM. For “Cys* Leu Arg Tyr Ser Val Pro Cys* (LRYSVPC; printed: Leu Arg Tyr Ser Val Pro Cys) [Sequence No. 28]”, the 50% inhibitory concentration (IC50) amounted to 1800 nM. Regarding “Cys* Met Arg Tyr Thr Ser Ala Cys* (MRYTSAC; printed: Met Arg Tyr Thr Ser Ala Cys) [Sequence No. 25]”, the concentration for half-maximal inhibition (IC50) stood at 2300 nM.
